These results are taken from PMC3307802 (MedChemComm, 2011).

Where only a bound is given, the exact number is not on record here.

Experiment [1] has as its target T1, KOP receptors (Homo sapiens, UniProt P41145). The conditions noted are these: cited from earlier work.
The subject of experiment [2] is cocaine-induced drug-seeking. The conditions noted are these: rats; dose of 0.3 mg/kg or greater; cited from earlier work.
For experiment [3], the system named is humans. The conditions noted are these: vaporized and inhaled; cited from earlier work.
Experiment [4] concerns serotonin 5HT2A receptors. The conditions noted are these: cited from earlier work.
In experiment [5] the target is T1, KOP receptors. In words: biochemical. The class given is biochemical.
Experiment [6] relates to KOP receptor. The conditions noted are these: cited from earlier work.
Experiment [7] concerns the target KOP receptor. The conditions noted are these: cited from earlier work. The source holds these as a separate data set.
The target in experiment [8] is T1, KOP receptors. The class given is binding.
Experiment [9] has as its system KOP receptor. In words: Previously published potency/efficacy at KOP receptors. The class given is biochemical. The conditions noted are these: relative to 1.

T1 sequence (P41145 whole entry): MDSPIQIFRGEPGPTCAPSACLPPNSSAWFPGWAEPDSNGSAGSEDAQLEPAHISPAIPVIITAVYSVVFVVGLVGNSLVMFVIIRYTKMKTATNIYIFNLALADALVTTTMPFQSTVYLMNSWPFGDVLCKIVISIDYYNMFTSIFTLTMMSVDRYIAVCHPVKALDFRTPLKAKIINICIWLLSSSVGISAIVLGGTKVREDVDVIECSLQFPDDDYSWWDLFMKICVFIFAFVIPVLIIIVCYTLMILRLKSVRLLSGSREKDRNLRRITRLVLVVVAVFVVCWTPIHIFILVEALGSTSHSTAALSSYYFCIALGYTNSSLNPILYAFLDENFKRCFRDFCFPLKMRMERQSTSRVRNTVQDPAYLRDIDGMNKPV

As to `COC(=O)[C@@H]1C[C@H](OC(C)=O)C(=O)[C@H]2[C@@]1(C)CC[C@H]1C(=O)O[C@H](c3ccoc3)C[C@]21C` [Compound 1, salvinorin A], the “ED50 ± SD (κ)” value in experiment [1] is 0.04 ± 0.01 µM. The “effect on cocaine-primed reinstatement of drug seeking” value in experiment [2] was “attenuate cocaine-primed reinstatement of drug seeking”. Also, in experiment [3], the “active dose in humans (hallucinogen)” value was 4.5 to 21 µg/kg. Also, the “activity at serotonin 5HT2A receptors” value in experiment [4] is “does not have activity”.

As to `CCOCO[C@H]1C[C@@H](C(=O)OC)[C@]2(C)CC[C@H]3C(=O)O[C@H](c4ccoc4)C[C@]3(C)[C@H]2C1=O` [Compound 4], it took 0.00065 ± 0.00017 µM to reach a half-maximal effect in experiment [5] (EC50).

Turning to `COC(=O)[C@@H]1C[C@H](O[C@@H]2CCCCO2)C(=O)[C@H]2[C@@]1(C)CC[C@H]1C(=O)O[C@H](c3ccoc3)C[C@]21C` [Compound 5], in experiment [5], a half-maximal response (EC50) required 0.06 ± 0.006 µM.

As for `COC(=O)[C@@H]1C[C@H](O[C@@H]2CCCO2)C(=O)[C@H]2[C@@]1(C)CC[C@H]1C(=O)O[C@H](c3ccoc3)C[C@]21C` [Compound 7a], in experiment [5], the EC50 (as a rule, the concentration that produces a half-maximal response) was found to be 1.22 ± 0.23 µM and the “fold less potent than 1 as agonist” value is on record as “approximately 30 fold”.

For `COC(=O)[C@@H]1C[C@H](O[C@H]2CCCO2)C(=O)[C@H]2[C@@]1(C)CC[C@H]1C(=O)O[C@H](c3ccoc3)C[C@]21C` [Compound 7b], in [5], the EC50 is 0.69 ± 0.08 µM and the “fold less potent than 1 as agonist” value is roughly 17 fold.

Turning to `CCOC(=O)O[C@H]1C[C@@H](C(=O)OC)[C@]2(C)CC[C@H]3C(=O)O[C@H](c4ccoc4)C[C@]3(C)[C@H]2C1=O` [Compound 11], in experiment [6] (vs. [3H]bremazocine), the “affinity at the KOP receptor vs. [3H]bremazocine” value is “no appreciable affinity”. Also, the “affinity at the KOP receptor vs. [3H]diprenorphine” value in experiment [6] (vs. [3H]diprenorphine) is on record as “no appreciable affinity”.

Consider `CCNC(=O)O[C@H]1C[C@@H](C(=O)OC)[C@]2(C)CC[C@H]3C(=O)O[C@H](c4ccoc4)C[C@]3(C)[C@H]2C1=O` [Compound 12], for which, in experiment [7] (read-out: KOP receptor potency EC50), the EC50 was greater than 1 µM.

In the case of `COCO[C@H]1C[C@@H](C(=O)OC)[C@]2(C)CC[C@H]3C(=O)O[C@H](C(=O)N4CCCCC4)C[C@]3(C)[C@H]2C1=O` [Compound 14], in [8], the “KOP binding affinity worse compared to 3” value is “roughly 31 fold” and the “KOP receptor binding affinity improved over that of 15” value is listed as “approximately 2 fold”. Also, in experiment [5], a half-maximal response (EC50) required 1.93 ± 0.239 µM, the “fold less potent than 1 as agonist” value worked out at 48 fold, the “fold less potent than 3 as agonist” value is on record as “roughly 322 fold” and the “improvement in potency over 15” value was “approximately 2.5 fold”.

With `COC(=O)[C@@H]1C[C@H](OC(C)=O)C(=O)[C@H]2[C@@]1(C)CC[C@H]1C(=O)O[C@H](C(=O)N3CCCCC3)C[C@]21C` [Compound 15, reference compound], the “fold less potent than 1 as agonist (previously published analog)” value in experiment [9] is reported as “approximately 125 fold”. In experiment [7], the “potency at KOP receptors ED50” value was 5.11 ± 1.8 µM.
